Measurements taken from ChEMBL document CHEMBL1806439, “Synthesis and antihistamine evaluations of novel loratadine analogues” (2011).

Tests used:
[1] = tested on: Cavia porcellus; assay: Antiasthmatic activity in guinea pig assessed as inhibition of histamine phosphate solution-induced asthmatic reaction measured as increase in asthmogenic latency period at 0.5 mg/kg administered as intragastric (reference value: 99.30 +/- 30.06 sec); type: functional
[2] = molecular target: Histamine H1 receptor (Cavia porcellus) (UniProt P31389); assay: Inhibition of histamine H1 receptor in guinea pig ileum assessed as inhibition of histamine-induced muscle spasms at 2 x 10 '-3 mg/ml after 5 mins (reference value: 0.31 %); type: tissue-based
Chain of Histamine H1 receptor (Cavia porcellus) (P31389 whole entry): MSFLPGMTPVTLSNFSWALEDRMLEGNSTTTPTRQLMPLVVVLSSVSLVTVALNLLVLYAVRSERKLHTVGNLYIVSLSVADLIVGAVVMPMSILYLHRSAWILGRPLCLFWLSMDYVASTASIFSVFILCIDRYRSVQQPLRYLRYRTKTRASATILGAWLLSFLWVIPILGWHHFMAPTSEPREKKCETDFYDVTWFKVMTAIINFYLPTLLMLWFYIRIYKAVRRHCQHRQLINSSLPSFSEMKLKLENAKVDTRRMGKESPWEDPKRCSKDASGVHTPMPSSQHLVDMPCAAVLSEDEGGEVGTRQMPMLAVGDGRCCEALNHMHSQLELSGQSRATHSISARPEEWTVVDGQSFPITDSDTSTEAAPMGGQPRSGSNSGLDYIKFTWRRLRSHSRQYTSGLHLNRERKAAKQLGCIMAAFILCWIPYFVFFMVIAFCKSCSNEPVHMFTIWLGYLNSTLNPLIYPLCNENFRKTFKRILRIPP

[3] = tested on: Cavia porcellus; assay: Antiasthmatic activity in guinea pig assessed as inhibition of histamine phosphate solution-induced asthmatic reaction measured as increase in asthmogenic latency period at 0.2 mg/kg administered as intragastric (reference value: 95.50 +/- 18.98 sec); type: functional

| Compound | inhibition [2] | Time [1] | Time [3] |
| --- | --- | --- | --- |
| C[C@H](CO)N1CCC(=C2c3ccc(Cl)cc3CCc3cccnc32)CC1 | 32.4% | 215.6 s | 111.1 s |
| CC[C@H](CO)N1CCC(=C2c3ccc(Cl)cc3CCc3cccnc32)CC1 | 29.4% | 229.2 s | 125.3 s |
| C[C@@H](CO)N1CCC(=C2c3ccc(Cl)cc3CCc3cccnc32)CC1 | 49.7% | 209.7 s | 112.8 s |
| OCCN1CCC(=C2c3ccc(Cl)cc3CCc3cccnc32)CC1 | 50.6% | 248.5 s | 133.3 s |
| OCCCN1CCC(=C2c3ccc(Cl)cc3CCc3cccnc32)CC1 | 53.7% | 360 s | 360 s |

Now from value to molecule, other results behind:

| inhibition [2] | Compound | Time [1] | Time [3] |
| --- | --- | --- | --- |
| 32.1% | C[C@@H](c1ccccc1)N1CCC(=C2c3ccc(Cl)cc3CCc3cccnc32)CC1 | 273.2 s | 170.2 s |
| 53.5% | CC[C@@H](CO)N1CCC(=C2c3ccc(Cl)cc3CCc3cccnc32)CC1 | 216 s | 123.1 s |
| 31.4% | C[C@H](c1ccccc1)N1CCC(=C2c3ccc(Cl)cc3CCc3cccnc32)CC1 | 309.6 s | 210.6 s |
| 41.3% | CN(C)CCC(c1ccc(Cl)cc1)c1ccccn1 (configuration not stated) [CHLORPHENIRAMINE] | 214.7 s | 105.7 s |
